Results published in ChEMBL document CHEMBL5608109, “Hepatotoxicity screening of Donated Chemical Probes” (2024).
Structures can show the parent of a compound that is named as a salt.

Test system: Hepatocyte spheroids
Test: This assay model using primary human hepatocyte (PHH) spheroids, which are cultured in Williams E medium. After spheroid formation, cells are exposed to compounds in an FBS-free culture medium. […] Imaging is performed on an Opera Phenix High-Content Screening System, allowing quantification of proliferation as a readout for evaluating the effects of chemical probes on hepatocyte regeneration.
Format: functional
Details: read-out: Cell Viability; for viability at 1 µM: Concentration 1 uM; for viability at 10 µM: Concentration 10 uM

SMILES | viability at 20 µM (Concentration 20 uM) | viability at 1 µM | viability at 10 µM
CN(C)CCCN1c2ccccc2Sc2ccc(Cl)cc21 [CHLORPROMAZINE HYDROCHLORIDE] | 0.683% (toxic) |  | 
CC(C)(O)c1cncc(-c2nc3ccc(F)cc3n2C2CC2)c1 [MSD-CYP11B2] |  | 113% (non-toxic) | 96.6% (non-toxic)
CO[C@H]1CC[C@H](CNc2ccc(S(=O)(=O)NC(=O)c3ccc(N4CCN(CC5=C(c6ccc(Cl)cc6)CC(C)(C)CC5)CC4)cc3Oc3cnc4[nH]ccc4c3)cc2[N+](=O)[O-])CC1 [A-1211212] |  | 130% (non-toxic) | 126% (non-toxic)
